One experiment deals with T1, HSV-1 helicase-primase (Human herpesvirus 1, UniProt P10189+P10236).
T1 construct: made in house; host or cells: Sf21 insect cells triply infected with recombinant baculoviruses (UL5, UL8, UL52)
Kind of experiment: HSV-1 DNA-dependent ATPase assay (inhibition of HSV-1 helicase-primase). It counts as biochemical. The essentials: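 ATP hydrolysis was measured as inorganic phosphate (malachite green/molybdate, 650 nm) after 20 min at 34°. Reaction: 3 μg/mL purified Sf21-expressed UL5/UL8/UL52 helicase-primase, 25 μM single-stranded M13 DNA hybridized to 68-mer, 4 mM ATP, pH 7.5 HEPES buffer, 3.3% DMSO. Net absorbance change with and without inhibitor gave DNA-dependent ATPase activity.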

A further experiment concerns HCMV (strain AD169). The experiment is described as follows: Inhibition of HCMV replication, plaque reduction assay (PRA, Hs-68 cells). It counts as cell-based, Human Cytomegalovirus (HCMV). Particulars: read-out: PRA CMV EC50. The essentials: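 Hs-68 monolayers (80–90% confluent) were infected with ~50 PFU HCMV AD169 for 2 h at 37°, then given compound in DMEM/5% inactivated FBS, refreshed after 4 days and kept 4 more days. Plaques were counted after formaldehyde fixation and crystal violet staining. EC50 derives from percent plaque reduction versus untreated wells.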
Background: Plaque reduction counts the foci of infection that form in a cell layer.

The subject of the next experiment is HSV-1 strain F or KOS. Kind of experiment: Inhibition of herpes simplex virus (HSV-1) replication in cell culture (BHK-21 cells, glycoprotein C ELISA). In kind it is cell-based. In outline: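 Replication readout: ELISA for HSV-1 late glycoprotein C (mAb C11, peroxidase-OPD, 450 nm) on glutaraldehyde-fixed cells. Monolayers (~50,000 cells/well) were infected with strain F or KOS (MOI 0.05 PFU/cell), then incubated 24 h at 37° with compound in 2% FBS α-MEM. EC50 derived from % inhibition.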
On the technique in general: An ELISA detects its analyte on a solid surface through an enzyme-linked reagent.

The mark [1] stands for this setting: Group 1 Table 2 entries (Q = CH2).
Setting [2] is: Human betaherpesvirus 5, AD169, Hs68, Group 1 Table 2 entries.
The mark [3] stands for this setting: Human alphaherpesvirus 1, BHK-21, Group 1 Table 2 entries.
[4] abbreviates: Human betaherpesvirus 5, AD169, Hs68, Group 1 Table 1 entries.
The mark [5] stands for this setting: Human alphaherpesvirus 1, BHK-21, Group 1 Table 1 entries.
[6] abbreviates: Human betaherpesvirus 5, AD169, Hs68, Group 1 Table 3 entries.
The mark [7] stands for this setting: Human alphaherpesvirus 1, BHK-21, Group 1 Table 3 entries.

Where two headings read alike, the source gives them in different places.

The IC50 is the concentration at which inhibition is half-maximal. A lower IC50 goes with higher potency. In general, EC50 refers to the concentration at which the effect is half-maximal.

T1 sequence (P10192 whole entry): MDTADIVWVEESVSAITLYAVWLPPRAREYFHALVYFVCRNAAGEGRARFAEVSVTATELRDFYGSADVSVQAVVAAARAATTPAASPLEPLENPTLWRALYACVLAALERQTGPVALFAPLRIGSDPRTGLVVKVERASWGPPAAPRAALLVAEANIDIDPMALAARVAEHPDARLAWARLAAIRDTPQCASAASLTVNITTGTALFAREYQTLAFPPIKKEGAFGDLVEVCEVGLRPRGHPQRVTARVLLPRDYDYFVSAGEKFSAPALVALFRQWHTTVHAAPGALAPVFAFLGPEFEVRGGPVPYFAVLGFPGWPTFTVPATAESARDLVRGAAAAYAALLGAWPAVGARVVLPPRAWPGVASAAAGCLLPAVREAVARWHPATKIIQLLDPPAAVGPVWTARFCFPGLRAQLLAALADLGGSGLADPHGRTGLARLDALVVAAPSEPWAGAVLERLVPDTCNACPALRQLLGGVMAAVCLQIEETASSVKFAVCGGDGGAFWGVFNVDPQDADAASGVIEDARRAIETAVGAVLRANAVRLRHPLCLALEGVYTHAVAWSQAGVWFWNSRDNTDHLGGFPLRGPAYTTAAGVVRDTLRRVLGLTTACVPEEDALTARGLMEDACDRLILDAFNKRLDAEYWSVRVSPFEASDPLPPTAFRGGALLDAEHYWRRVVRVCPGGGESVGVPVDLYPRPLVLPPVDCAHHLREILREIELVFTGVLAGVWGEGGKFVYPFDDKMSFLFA
T1 sequence (P10236 whole entry): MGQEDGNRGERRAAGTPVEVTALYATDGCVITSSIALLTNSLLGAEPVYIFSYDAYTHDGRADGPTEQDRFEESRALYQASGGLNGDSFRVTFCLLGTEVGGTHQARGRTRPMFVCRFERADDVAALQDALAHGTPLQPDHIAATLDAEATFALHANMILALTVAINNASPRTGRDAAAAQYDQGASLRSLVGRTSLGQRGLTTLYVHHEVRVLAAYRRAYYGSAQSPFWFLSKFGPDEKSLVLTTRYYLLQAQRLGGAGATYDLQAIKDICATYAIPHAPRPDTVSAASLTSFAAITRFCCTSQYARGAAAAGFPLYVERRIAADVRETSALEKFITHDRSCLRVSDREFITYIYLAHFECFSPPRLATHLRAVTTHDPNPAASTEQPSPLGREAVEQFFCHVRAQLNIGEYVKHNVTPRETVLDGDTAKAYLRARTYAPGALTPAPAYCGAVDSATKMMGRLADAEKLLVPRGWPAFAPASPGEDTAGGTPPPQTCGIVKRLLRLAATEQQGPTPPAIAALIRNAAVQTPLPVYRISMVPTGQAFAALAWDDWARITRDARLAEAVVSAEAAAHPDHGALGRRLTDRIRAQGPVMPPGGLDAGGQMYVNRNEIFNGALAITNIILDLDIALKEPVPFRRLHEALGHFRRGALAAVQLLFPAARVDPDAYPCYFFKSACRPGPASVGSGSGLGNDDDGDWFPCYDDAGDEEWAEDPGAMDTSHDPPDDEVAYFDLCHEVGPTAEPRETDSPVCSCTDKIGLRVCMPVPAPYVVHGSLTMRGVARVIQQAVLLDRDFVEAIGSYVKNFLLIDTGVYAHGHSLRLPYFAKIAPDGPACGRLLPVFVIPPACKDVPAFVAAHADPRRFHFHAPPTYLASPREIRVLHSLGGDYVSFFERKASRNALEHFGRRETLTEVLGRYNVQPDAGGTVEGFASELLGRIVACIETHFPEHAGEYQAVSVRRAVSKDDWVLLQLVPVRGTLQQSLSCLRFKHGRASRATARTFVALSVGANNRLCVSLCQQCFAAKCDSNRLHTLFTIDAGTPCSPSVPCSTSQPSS
T1 sequence (P10189 whole entry): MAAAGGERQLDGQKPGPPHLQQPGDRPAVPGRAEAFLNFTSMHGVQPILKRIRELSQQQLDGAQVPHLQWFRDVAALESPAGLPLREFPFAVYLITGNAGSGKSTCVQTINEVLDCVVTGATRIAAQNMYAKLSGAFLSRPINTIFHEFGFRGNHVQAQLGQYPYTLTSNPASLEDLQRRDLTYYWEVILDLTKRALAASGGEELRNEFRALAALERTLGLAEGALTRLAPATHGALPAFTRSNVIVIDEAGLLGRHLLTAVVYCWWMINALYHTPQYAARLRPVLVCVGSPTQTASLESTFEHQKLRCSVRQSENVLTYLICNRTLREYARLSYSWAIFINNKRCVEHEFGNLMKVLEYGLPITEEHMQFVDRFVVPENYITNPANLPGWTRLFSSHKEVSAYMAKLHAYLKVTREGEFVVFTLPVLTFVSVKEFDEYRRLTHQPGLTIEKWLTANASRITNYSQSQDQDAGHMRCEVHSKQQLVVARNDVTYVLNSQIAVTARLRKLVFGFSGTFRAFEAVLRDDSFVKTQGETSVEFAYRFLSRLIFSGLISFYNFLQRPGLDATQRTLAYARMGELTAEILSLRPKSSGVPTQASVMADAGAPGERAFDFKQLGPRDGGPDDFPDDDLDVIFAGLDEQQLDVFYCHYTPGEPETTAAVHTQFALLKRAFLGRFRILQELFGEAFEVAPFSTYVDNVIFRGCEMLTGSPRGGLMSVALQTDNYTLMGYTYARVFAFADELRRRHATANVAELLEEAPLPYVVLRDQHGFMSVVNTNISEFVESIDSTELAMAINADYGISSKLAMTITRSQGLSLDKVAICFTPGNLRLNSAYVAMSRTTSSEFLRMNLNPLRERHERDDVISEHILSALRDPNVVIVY

For the compound `CC(C)(C)OC(=O)N(CCC(=O)Nc1ccc(-c2csc(N)n2)cc1)Cc1ccccc1` [Example 15], on HSV-1 helicase-primase (setting [1]), the half-maximal inhibitory concentration (IC50) came to 280 nM. The EC50 in the experiment with HCMV (strain AD169) (setting [2]) came out at 9000 nM; in the experiment on HSV-1 strain F or KOS (setting [3]), 640 nM.
At HSV-1 helicase-primase (Group 1 Table 1 entries), `CN(CC(=O)Nc1ccc(-c2csc(N)n2)cc1)Cc1ccccc1` [Example 15] yielded an IC50 of 3300 nM. The results for the EC50 with HCMV (strain AD169) (setting [4]) and with HSV-1 strain F or KOS (setting [5]) were 6500 nM and 950 nM, respectively.
Turning to `Nc1nc(-c2ccc(NC(=O)CCN(Cc3ccccc3)C(=O)OCc3ccccc3)cc2)cs1` [Example 16], half-maximal inhibition on HSV-1 helicase-primase (setting [1]) (IC50) was put at 1800 nM. Moreover, the EC50 in the experiment on HCMV (strain AD169) (setting [2]) came to 8000 nM; in the experiment with HSV-1 strain F or KOS (setting [3]), 2600 nM.
Compound `Nc1nc(-c2ccc(NC(=O)CN(Cc3ccccc3)Cc3ccccc3)cc2)cs1` [Example 16] registered an IC50 against HSV-1 helicase-primase (Group 1 Table 1 entries) of 550 nM. Also, the EC50 came to 13000 nM with HCMV (strain AD169) (setting [4]) and 450 nM in the experiment with HSV-1 strain F or KOS (setting [5]).
At HSV-1 helicase-primase (setting [1]), `Nc1nc(-c2ccc(NC(=O)CCN(Cc3ccccc3)CC3CCCCC3)cc2)cs1` [Example 17] gave an IC50 of 760 nM. The EC50 was greater than 5000 nM in the experiment with HCMV (strain AD169) (setting [2]) and 1800 nM in the experiment with HSV-1 strain F or KOS (setting [3]).
Compound `CC(=O)Nc1nc(-c2ccc(NC(=O)CN(Cc3ccccc3)C(C)=O)cc2)cs1` [Example 18] showed an IC50 against HSV-1 helicase-primase (Group 1 Table 3 entries) greater than 100000 nM. The EC50 in the experiment on HCMV (strain AD169) (setting [6]) is greater than 81000 nM; with HSV-1 strain F or KOS (setting [7]) it was greater than 30000 nM.
For `C[C@@H](c1ccccc1)N(CCC(=O)Nc1ccc(-c2csc(N)n2)cc1)C(=O)OC(C)(C)C` [Example 18], the midpoint of inhibition against HSV-1 helicase-primase (setting [1]), the IC50, lay at 1000 nM. Further, the EC50 with HCMV (strain AD169) (setting [2]) was found to be 3300 nM; in the experiment with HSV-1 strain F or KOS (setting [3]), 1600 nM.
With `C[C@@H](c1ccccc1)N(CCC(=O)Nc1ccc(-c2csc(N)n2)cc1)Cc1ccccc1` [Example 19], it took 460 nM to reach half-maximal inhibition against HSV-1 helicase-primase (setting [1]) (IC50). Moreover, the EC50 in the experiment on HCMV (strain AD169) (setting [2]) turned out to be 4000 nM; in the experiment with HSV-1 strain F or KOS (setting [3]), 890 nM.
On to `CC(C)c1nc(-c2ccc(NC(=O)CN(Cc3ccccc3)C(=O)c3ccccc3)cc2)cs1` [Example 20], for which the IC50 at HSV-1 helicase-primase (Group 1 Table 3 entries) was greater than 50000 nM. Besides, the EC50 is 70000 nM with HCMV (strain AD169) (setting [6]) and greater than 25000 nM in the experiment with HSV-1 strain F or KOS (setting [7]).
In the case of `C[C@H](NCCC(=O)Nc1ccc(-c2csc(N)n2)cc1)c1ccccc1` [Example 20], the IC50 on HSV-1 helicase-primase (setting [1]) stood at 7200 nM. The EC50 was 13000 nM with HCMV (strain AD169) (setting [2]) and 1300 nM in the experiment on HSV-1 strain F or KOS (setting [3]).
In the same order, the values of `CC(C)(C)OC(=O)N(CCC(=O)Nc1ccc(-c2csc(N)n2)cc1)CC1CCCCC1` [Example 21] are 28 nM, 6500 nM and 450 nM.
On HSV-1 helicase-primase (Group 1 Table 1 entries), `CN(CC(=O)Nc1ccc(-c2csc(N)n2)cc1)C(=O)c1ccncc1` [Example 22] displayed an IC50 of 5900 nM. For the same compound, the EC50 in the experiment on HCMV (strain AD169) (setting [4]) came to 110000 nM; with HSV-1 strain F or KOS (setting [5]), 1800 nM.
Turning to `Nc1nc(-c2ccc(NC(=O)CCNCC3CCCCC3)cc2)cs1` [Example 22], on HSV-1 helicase-primase (setting [1]), the concentration for half-maximal inhibition (IC50) came to 29000 nM. For the same compound, the results for the EC50 in the experiment with HCMV (strain AD169) (setting [2]) and in the experiment with HSV-1 strain F or KOS (setting [3]) were greater than 6000 nM and 6000 nM, respectively.
On HSV-1 helicase-primase (setting [1]), `CCCC(CCC)NCCC(=O)Nc1ccc(-c2csc(N)n2)cc1` [Example 23] had an IC50 of 45000 nM. For the same compound, the EC50 is greater than 9000 nM in the experiment with HCMV (strain AD169) (setting [2]) and 6000 nM with HSV-1 strain F or KOS (setting [3]).
With `Nc1nc(-c2ccc(NC(=O)CN(Cc3ccccc3)C(=O)c3ccccc3)cc2)cs1` [Example 23], on HSV-1 helicase-primase (Group 1 Table 1 entries), the IC50 amounted to 72 nM. Also, the figures for the 50% effective concentration (EC50) in the experiment with HCMV (strain AD169) (setting [4]) and with HSV-1 strain F or KOS (setting [5]) were 36000 nM and 7 nM, respectively.
Turning to `Nc1nc(-c2ccc(NC(=O)CCN(CC3CCCCC3)C(=O)c3cccnc3)cc2)cs1` [Example 24], at HSV-1 helicase-primase (setting [1]), the IC50 was 1200 nM. Moreover, the 50% effective concentration (EC50) stood at 31000 nM with HCMV (strain AD169) (setting [2]) and 1700 nM in the experiment on HSV-1 strain F or KOS (setting [3]).
Consider `Nc1nc(-c2ccc(NC(=O)CN(Cc3ccccc3)C(=O)c3ccc(F)cc3)cc2)cs1` [Example 24], for which, on HSV-1 helicase-primase (Group 1 Table 1 entries), the IC50 was 48 nM. In addition, the EC50 came to 15000 nM in the experiment on HCMV (strain AD169) (setting [4]) and 2 nM in the experiment with HSV-1 strain F or KOS (setting [5]).
`C[C@@H](NCCC(=O)Nc1ccc(-c2csc(N)n2)cc1)c1ccccc1` [Example 25]: at HSV-1 helicase-primase (setting [1]), the IC50 stood at 13600 nM. Further, the EC50 in the experiment on HCMV (strain AD169) (setting [2]) was greater than 6000 nM; with HSV-1 strain F or KOS (setting [3]), 2600 nM.
Take `Nc1nc(-c2ccc(NC(=O)CN(Cc3ccccc3)C(=O)Cc3ccccc3)cc2)cs1` [Example 26]: on HSV-1 helicase-primase (Group 1 Table 1 entries), the IC50 stood at 500 nM. For the same compound, the EC50 in the experiment with HCMV (strain AD169) (setting [4]) worked out at 15000 nM; with HSV-1 strain F or KOS (setting [5]) it was 50 nM.
In turn, `Nc1nc(-c2ccc(NC(=O)CN(Cc3ccccc3)C(=O)c3ccccn3)cc2)cs1` [Example 27] returned an IC50 against HSV-1 helicase-primase (Group 1 Table 1 entries) of 1000 nM. Moreover, the EC50 is greater than 36000 nM with HCMV (strain AD169) (setting [4]) and 280 nM in the experiment with HSV-1 strain F or KOS (setting [5]).
The matching figures for `Nc1nc(-c2ccc(NC(=O)CN(Cc3ccccc3)C(=O)c3cccnc3)cc2)cs1` [Example 28]: 430 nM, 35000 nM and 130 nM.

Values taken from patent publication US6288091A, “Antiherpes virus compounds and methods for their preparation and use” (Boehringer Ingelheim Ltd., priority 1999, dated 2001).
